Assays:
Dihydrofolate reductase [1] = target: T1, Dihydrofolate reductase (Homo sapiens, UniProt P00374); assay: Inhibitory activity against Dihydrofolate reductase (DHFR) isolated from CCRF-CEM human leukemia cells in experiment 2; format: cell-free
T1 sequence (P00374 whole entry): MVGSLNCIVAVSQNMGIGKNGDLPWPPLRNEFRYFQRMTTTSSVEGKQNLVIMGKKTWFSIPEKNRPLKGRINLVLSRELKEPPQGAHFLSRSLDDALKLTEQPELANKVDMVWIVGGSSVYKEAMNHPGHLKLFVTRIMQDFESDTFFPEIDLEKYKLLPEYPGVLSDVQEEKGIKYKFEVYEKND

Dihydrofolate reductase [2] = target: T1, Dihydrofolate reductase; assay: Inhibitory activity against Dihydrofolate reductase (DHFR) isolated from CCRF-CEM human leukemia cells in experiment 1; format: cell-free

IC50 (Dihydrofolate reductase [1])	IC50 (Dihydrofolate reductase [2])	SMILES
1.34 nM		CN(Cc1cnc2nc(N)nc(N)c2n1)c1ccc(C(=O)NC(C(=O)O)C(F)(F)CC(=O)O)cc1 (racemic)
	1.35 nM	CN(Cc1cnc2nc(N)nc(N)c2n1)c1ccc(C(=O)NC(CC(F)C(=O)O)C(=O)O)cc1 (racemic)
	0.84 nM	CN(Cc1cnc2nc(N)nc(N)c2n1)c1ccc(C(=O)N[C@H](C[C@@H](F)C(=O)O)C(=O)O)cc1
